The target of experiment [1] is T1, HDAC2 (Homo sapiens, UniProt Q92769).
T1 construct: purchased Abcam (Cambridge, MA, USA)
As to the kind of experiment: In vitro HDAC2 inhibition assay (Boc-Lys(acetyl)-AMC fluorogenic). It counts as biochemical. The method, then: (§1) Hit compounds were purchased from WuXi AppTec.
In vitro HDAC2 inhibition assays were performed as previously stated. Briefly, 50 µL of various concentrations of tested compounds were mixed with 10 µL of HDAC2 enzyme solution. After 5 min of 37 °C incubation, 40 µL of the luorogenic substrate Boc-Lys(acetyl)-AMC was added. The mixture was incubated at 37 °C for 30 min and stopped by adding 100 µL of developer containing trypsin and TSA. Then, fluorescence intensity was determined 20 min later at excitation and emission wavelengths of 390 and 460 nm, respectively, using a microplate reader. The IC50 values were determined by the GraphPad Prism 6 program based on a sigmoidal dose − response equation, and the inhibition rates were calculated using the fluorescence intensity readings of the tested wells in comparison to those of the control wells.

Experiment [2] deals with LAPC4 cells. As to the kind of experiment: MTT cell growth assay, LAPC4. The following applies: Homo sapiens, LAPC4, 72 h, read-out: LAPC4 cell proliferation IC50. (Tetrazolium assays rely on reduction of a dye to a coloured formazan, in cell work by metabolically active cells.)
Procedure: (§2) The American Type Culture Collection (ATCC) (Manassas, VA, USA) provided the human cancer cell lines including DU145, RM-1, LAPC4, 22RV1, and PC-3, which was then cultured in Dulbecco’s modified Eagle’s medium (DMEM) with 1% penicillin-streptomycin and 10% foetal bovine serum (FBS) in a humidified environment with 5% CO2 at 37 °C.
(§3) Based on the experimental method published previously, cell lines were prepared in cell suspension (5 × 10^4 cells/mL) and seeded into a 96-well plate[59].
Experiment [3] concerns DU145 cells. The experiment is described as follows: MTT cell growth assay, DU145. Particulars: for inhibition at 1 µM: DU-145, read-out: DU145 (% inhibition rate, 1 μM).
Procedure: as §2, §3
The subject of experiment [4] is multiple prostate-related tumour cells (DU145, RM-1, LAPC4, 22RV1, PC-3). As to the kind of experiment: MTT cell growth assay, prostate cancer cell panel. The following applies: Homo sapiens, read-out: anti-proliferative IC50 against prostate-related tumour cells.
Procedure: as §2, §3
Experiment [5] has as its target T2, CARM1 (Homo sapiens, UniProt Q86X55).
T2 construct: purchased Abcam (Cambridge, MA, USA)
T2 sequence (Q86X55 1-608): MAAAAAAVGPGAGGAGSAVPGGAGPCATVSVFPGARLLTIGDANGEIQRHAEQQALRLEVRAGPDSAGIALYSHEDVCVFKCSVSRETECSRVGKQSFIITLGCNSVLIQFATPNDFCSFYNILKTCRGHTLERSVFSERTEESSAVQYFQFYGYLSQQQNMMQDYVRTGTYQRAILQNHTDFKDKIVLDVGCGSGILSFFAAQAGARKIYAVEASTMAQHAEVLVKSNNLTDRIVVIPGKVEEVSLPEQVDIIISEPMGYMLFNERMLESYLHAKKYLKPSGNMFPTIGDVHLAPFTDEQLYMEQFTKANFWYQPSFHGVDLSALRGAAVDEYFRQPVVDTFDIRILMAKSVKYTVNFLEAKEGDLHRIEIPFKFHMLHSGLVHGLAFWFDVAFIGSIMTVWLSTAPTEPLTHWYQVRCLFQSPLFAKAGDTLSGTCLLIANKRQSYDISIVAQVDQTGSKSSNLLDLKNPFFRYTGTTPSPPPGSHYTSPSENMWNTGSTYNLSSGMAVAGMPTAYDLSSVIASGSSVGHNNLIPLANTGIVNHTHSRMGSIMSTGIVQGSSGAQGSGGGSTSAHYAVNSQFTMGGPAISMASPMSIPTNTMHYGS
The experiment is described as follows: In vitro CARM1 inhibition assay (3H-SAM, Flashplate). It is filed as biochemical. Particulars: 30 min preincubation, pH 7.5. How it is done:
as §1
In vitro CARM1 inhibition assays were conducted as previously described. Before the reaction began, CARM1 was preincubated with compounds for 30 min at room temperature. […] Assay was performed at the condition of pH 7.5. The assay was quenched through the addition of 300 µM unlabelled SAM. The quantity of ^3H-labeled peptide produced was measured by Flashplate on a Topcount reader.

Experiment [6] concerns DU145 xenograft tumour. As to the kind of experiment: In vivo anticancer activity, DU145 xenograft. Details: species or system BALB/c nude mice. The following applies: 5, 10 and 20 mg/kg i.p., every four days, six times; dose-dependent. How it is done:
The method of in vivo assay was described previously. We bought healthy female BALB/c nude mice from the animal experiment centre of Yangzhou University. All experiments involving animals were approved by the Animal Ethics Committee of China Pharmaceutical University. Mice were subcutaneously injected on the right flank with DU145 cells (200 µl, 1 × 10^7 cells). When tumour sizes reached 80–100 mm^3, mice were divided into four groups at random. Every four days for a total of six times, each group was injected intraperitoneally with the vehicle, CH-1 (5 mg/kg), CH-1 (10 mg/kg), and CH-1 (20 mg/kg). Tumour volume was measured every four days and calculated by the formula (c × c × d)/2 (c, the smallest diameter; d, the largest diameter).

Experiment [7] has as its system PC-3 cells. The experiment is described as follows: MTT cell growth assay, PC-3. The following applies: Homo sapiens, PC-3, 72 h, read-out: PC-3 cell proliferation IC50.
Procedure: The American Type Culture Collection (ATCC) (Manassas, VA, USA) provided the human cancer cell lines including DU145, RM-1, LAPC4, 22RV1, and PC-3, which was then cultured in Dulbecco’s modified Eagle’s medium (DMEM) with 1% penicillin-streptomycin and 10% foetal bovine serum (FBS) in a humidified environment with 5% CO2 at 37 °C. […] Hit compounds were purchased from WuXi AppTec.
as §3
Experiment [8] relates to RM-1 cells. The experiment is described as follows: MTT cell growth assay, RM-1. The following applies: RM1, 72 h, read-out: RM-1 cell proliferation IC50.
Procedure: as §2, §3
Experiment [9] has as its system 22RV1 cells. As to the kind of experiment: MTT cell growth assay, 22RV1. The following applies: Homo sapiens, 22Rv1, 72 h, read-out: 22RV1 cell proliferation IC50.
Procedure: as §2, §3
[10] abbreviates: 37 °C, 30 min, read-out: HDAC2 (IC50).

Entries after “also recorded” stand apart in the source; their conditions may differ. Like-named read-outs stand apart in the source and are kept apart here.

T1 sequence (Q92769 whole entry): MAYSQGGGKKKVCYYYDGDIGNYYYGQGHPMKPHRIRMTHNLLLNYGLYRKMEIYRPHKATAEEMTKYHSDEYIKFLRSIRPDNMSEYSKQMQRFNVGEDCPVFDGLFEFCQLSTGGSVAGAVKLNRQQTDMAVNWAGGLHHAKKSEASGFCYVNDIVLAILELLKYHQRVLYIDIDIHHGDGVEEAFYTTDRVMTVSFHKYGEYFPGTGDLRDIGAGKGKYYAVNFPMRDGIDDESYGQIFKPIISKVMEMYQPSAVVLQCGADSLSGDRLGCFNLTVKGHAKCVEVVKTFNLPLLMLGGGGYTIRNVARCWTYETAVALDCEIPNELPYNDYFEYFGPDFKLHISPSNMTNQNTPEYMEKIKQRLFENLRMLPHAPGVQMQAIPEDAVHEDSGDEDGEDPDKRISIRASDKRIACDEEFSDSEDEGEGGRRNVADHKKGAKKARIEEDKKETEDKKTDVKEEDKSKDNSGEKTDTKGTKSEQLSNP

Usually inhibition stands for the relative decrease from the control value, in per cent. As to `CNCCNCc1cccc(-c2nc(Nc3cccc(OCCCCCCC(=O)NO)c3)c(C)c(-c3ccnc4[nH]ccc34)n2)c1` [CH-1], the IC50 in experiment [1] was 0.00407 ± 0.00025 µM; in experiment [2], 0.68 µM; in experiment [3] (Homo sapiens, DU-145, 72 h, read-out: DU145 cell proliferation IC50), 0.09 µM; in [4], < 1 µM; in experiment [5], 0.00371 ± 0.00011 µM; in experiment [7], 0.43 µM. In addition, the IC50 in [8] amounted to 0.71 µM; in experiment [9] it was 0.95 µM. Also, in experiment [3] (Homo sapiens), the inhibition at 1 µM is 97%. Also, the “inhibitory activity on DU145 cells relative to vorinostat” value in experiment [3] (ratio of IC50 values) is “five times stronger”. Also, in [6], the “tumour volume / tumour growth versus vehicle” value is given as “significantly inhibited tumour growth; also recorded: significantly reduced; also recorded: significant antitumour activity”.
`CNCCNCc1cccc(-c2nc(Nc3cccc(OCCCCCCC(=O)NO)c3)c(C)c(-c3c(C)noc3C)n2)c1` [CH-2]: the IC50 is 0.00833 ± 0.00105 µM in experiment [1] (setting [10]) and 0.00538 ± 0.00054 µM in [5]. Further, the inhibition at 1 µM in experiment [3] (Homo sapiens) is 93%.
The corresponding values for `CNCCNCc1cccc(-c2nc(Nc3cccc(OCCCCCCC(=O)NO)c3)c(C)c(-c3cccnc3)n2)c1` [CH-3] are 0.00583 ± 0.00041 µM, 0.0106 ± 0.00093 µM and 96%.
The corresponding values for `CNCCNCc1cccc(-c2nc(Nc3cccc(OCCCCCCC(=O)NO)c3)c(C)c(-c3cc4cccc(OC)c4[nH]3)n2)c1` [CH-4] are 0.00918 ± 0.00017 µM, 0.0255 ± 0.00112 µM and 92%.
Take `CNCCNCc1cccc(-c2nc(Nc3cccc(OCCCCCCC(=O)NO)c3)c(C)c(-c3cc4ccccc4s3)n2)c1` [CH-5]: the IC50 in [1] (setting [10]) worked out at 0.0173 ± 0.00196 µM; in [5], 0.0301 ± 0.00202 µM. For the same compound, the inhibition at 1 µM in experiment [3] (Homo sapiens) came out at 85%.
The corresponding values for `CNCCNCc1cccc(-c2nc(Cl)c(C)c(Nc3cccc(OCCCCCCC(=O)NO)c3)n2)c1` [CH-6] are 0.013 ± 0.00125 µM, 0.0374 ± 0.00165 µM and 86%.
The corresponding values for `CNCCNCc1cccc(-c2nc(Nc3cccc(OCCCCCCC(=O)NO)c3)c(C)c(Oc3ccccc3)n2)c1` [CH-7] are 0.0248 ± 0.00153 µM, 0.0585 ± 0.00321 µM and 81%.
Turning to `CNC[C@@H](O)COc1ccc(Cl)c(-c2nc(-c3c(C)noc3C)c(C)c(N3CC4(CCN(C(=O)OC)CC4)C3)n2)c1` [EZM2302, reference compound], the “HDAC2 (IC50, nM)” value in experiment [1] (37 °C, 30 min) is reported as “no inhibition”. Besides, the inhibition at 1 µM in [3] (Homo sapiens) is < 50%.
For the compound `O=C(CCCCCCC(=O)Nc1ccccc1)NO` [vorinostat, reference compound], the “CARM1 (IC50, nM)” value in experiment [5] is recorded as “no inhibitory effect; also recorded: no inhibition”.

These data come from PMC10399481, “Discovery and biological evaluation of novel CARM1/HDAC2 dual-targeting inhibitors with anti-prostate cancer agents” (Journal of Enzyme Inhibition and Medicinal Chemistry, 2023).
